What was measured:
F508del-CFTR = molecular target: T1, F508del-CFTR (Homo sapiens, UniProt P13569, DEL508-508); assay: Membrane potential optical (FLIPR) assay for F508del-CFTR modulators in NIH 3T3 cells; assay type: cell-based; conditions: NIH 3T3 cells expressing F508del; assay A1; read-out: CFTRdF508 Cor 3T3 FLIPR 384 CFTRdF508 MP 3T3 770 EC50
T1 construct: expressed in transfected cells
Source text: Membrane Potential Optical Methods for Assaying Properties of F508del-CFTR Modulators
The assay utilizes fluorescent voltage sensing dyes to measure changes in membrane potential using a fluorescent plate reader (e.g., FLIPR III, Molecular Devices, Inc.) as a readout for increase in functional F508del in NIH 3T3 cells. The driving force for the response is the creation of a chloride ion gradient in conjunction with channel activation and concurrent with compound treatment by a single liquid addition step after the cells have previously been loaded with a voltage sensing dye.
A1. Identification of F508del-CFTR Modulators
To identify modulators of F508del, a fluorescence based HTS assay format was developed. This HTS assay utilizes fluorescent voltage sensing dyes to measure changes in membrane potential on the FLIPR III as a measurement for increase in gating (conductance) of F508del NIH 3T3 cells. The driving force for the response is the creation of a chloride ion gradient in conjunction with channel activation and concurrent with compound treatment by a single liquid addition step after the cells have previously been loaded with a voltage sensing dye.
Bath Solution #1: (in mM) NaCl 160, KCl 4.5, CaCl2 2, MgCl2 1, HEPES 10, pH 7.4 with NaOH, Glucose 10.
Chloride-free bath solution: Chloride salts in Bath Solution #1 (above) are substituted with gluconate salts.
NIH3T3 mouse fibroblasts stably expressing F508del were used for optical measurements of membrane potential. The cells were maintained at 37° C. in 5% CO2 and 90% humidity in Dulbecco's modified Eagle's medium supplemented with 2 mM glutamine, 10% fetal bovine serum, 1×NEAA, β-ME, 1× pen/strep, and 25 mM HEPES in 175 cm^2 culture flasks. For all optical assays, the cells were seeded at 12,000 cells/well in 384-well matrigel-coated plates and cultured for 18-24 hrs at 37° C. for the potentiator assay. For the correction assay, the cells were cultured at 37° C. with and without compounds for 18-24 hours.

human PXR = molecular target: T2, human PXR (Homo sapiens, UniProt O75469); assay: PXR assay: PXR mediated CYP3A4 induction in DPX-2 cell line; assay type: cell-based; conditions: DPX-2 cells
T2 construct: host or cells: DPX-2 cell line (derived from HepG2)
T2 sequence (O75469 1-434): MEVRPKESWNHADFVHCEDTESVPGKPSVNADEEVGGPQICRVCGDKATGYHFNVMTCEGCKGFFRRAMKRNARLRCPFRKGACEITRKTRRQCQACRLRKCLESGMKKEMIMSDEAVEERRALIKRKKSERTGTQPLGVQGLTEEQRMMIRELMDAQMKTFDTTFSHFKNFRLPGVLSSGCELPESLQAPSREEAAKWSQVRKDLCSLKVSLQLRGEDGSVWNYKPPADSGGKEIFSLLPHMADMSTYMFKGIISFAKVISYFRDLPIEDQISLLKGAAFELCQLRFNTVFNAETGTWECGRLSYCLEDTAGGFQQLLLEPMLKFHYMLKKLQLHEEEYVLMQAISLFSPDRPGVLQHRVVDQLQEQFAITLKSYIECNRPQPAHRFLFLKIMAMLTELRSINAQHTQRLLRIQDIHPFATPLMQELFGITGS
Method: D. Experimental Protocol for PXR Assay
The propensity for PXR mediated CYP3A4 induction is assessed using the DPX-2 cell line in vitro. This cell line, which has been licensed from Puracyp Inc. was derived from HepG2 cells and has been stably transfected with genes encoding human PXR as well as a modified luciferase reporter linked to the CYP3A4 promoter region and related distal and proximal enhancers.
The assay is run in 384 well format and each test article is administered in 11 doses ranging from 0.1 to 60 μM. On day 1, DPX-2 cells which have previously been expanded in-house and cryopreserved are thawed and seeded in tissue culture plates. The following day, media is changed and cells are cultured in media containing test article, vehicle control or the positive control compound, the clinically validated CYP3A4 inducer rifampicin. Cells are cultured in the presence of test article for 48 hours and then cell viability is assessed using fluorescence based assay (Cell Titer-Fluor, Promega) with an EnVision Plate Reader (PerkinElmer). Subsequently, CYP3A4 transactivation, which is proportional to luciferase activity, is measured by reading luminescense using the Promega One-Glo reagent system using the same plate reader.
Data processing within the Genedata software package allows reporting of max fold induction compared to vehicle control, an EC50 value for CYP3A4 inducers and an 11 point-dose response curve.

[1] = MDCK-Wild Type permeability, 96 well + 0.1% BSA; assay type: in vitro ADME; conditions: dog, MDCK, A-B direction, read-out: MDCK-Wild Type-Permeability 96 well + 0.1% BSA Papp compound (A-B)
Rat hepatocytes = assay: Hepatocyte clearance, rat hepatocytes; assay type: in vitro ADME; conditions: percent unchanged

T1 sequence (P13569 with tags, fused parts or gaps DEL508-508): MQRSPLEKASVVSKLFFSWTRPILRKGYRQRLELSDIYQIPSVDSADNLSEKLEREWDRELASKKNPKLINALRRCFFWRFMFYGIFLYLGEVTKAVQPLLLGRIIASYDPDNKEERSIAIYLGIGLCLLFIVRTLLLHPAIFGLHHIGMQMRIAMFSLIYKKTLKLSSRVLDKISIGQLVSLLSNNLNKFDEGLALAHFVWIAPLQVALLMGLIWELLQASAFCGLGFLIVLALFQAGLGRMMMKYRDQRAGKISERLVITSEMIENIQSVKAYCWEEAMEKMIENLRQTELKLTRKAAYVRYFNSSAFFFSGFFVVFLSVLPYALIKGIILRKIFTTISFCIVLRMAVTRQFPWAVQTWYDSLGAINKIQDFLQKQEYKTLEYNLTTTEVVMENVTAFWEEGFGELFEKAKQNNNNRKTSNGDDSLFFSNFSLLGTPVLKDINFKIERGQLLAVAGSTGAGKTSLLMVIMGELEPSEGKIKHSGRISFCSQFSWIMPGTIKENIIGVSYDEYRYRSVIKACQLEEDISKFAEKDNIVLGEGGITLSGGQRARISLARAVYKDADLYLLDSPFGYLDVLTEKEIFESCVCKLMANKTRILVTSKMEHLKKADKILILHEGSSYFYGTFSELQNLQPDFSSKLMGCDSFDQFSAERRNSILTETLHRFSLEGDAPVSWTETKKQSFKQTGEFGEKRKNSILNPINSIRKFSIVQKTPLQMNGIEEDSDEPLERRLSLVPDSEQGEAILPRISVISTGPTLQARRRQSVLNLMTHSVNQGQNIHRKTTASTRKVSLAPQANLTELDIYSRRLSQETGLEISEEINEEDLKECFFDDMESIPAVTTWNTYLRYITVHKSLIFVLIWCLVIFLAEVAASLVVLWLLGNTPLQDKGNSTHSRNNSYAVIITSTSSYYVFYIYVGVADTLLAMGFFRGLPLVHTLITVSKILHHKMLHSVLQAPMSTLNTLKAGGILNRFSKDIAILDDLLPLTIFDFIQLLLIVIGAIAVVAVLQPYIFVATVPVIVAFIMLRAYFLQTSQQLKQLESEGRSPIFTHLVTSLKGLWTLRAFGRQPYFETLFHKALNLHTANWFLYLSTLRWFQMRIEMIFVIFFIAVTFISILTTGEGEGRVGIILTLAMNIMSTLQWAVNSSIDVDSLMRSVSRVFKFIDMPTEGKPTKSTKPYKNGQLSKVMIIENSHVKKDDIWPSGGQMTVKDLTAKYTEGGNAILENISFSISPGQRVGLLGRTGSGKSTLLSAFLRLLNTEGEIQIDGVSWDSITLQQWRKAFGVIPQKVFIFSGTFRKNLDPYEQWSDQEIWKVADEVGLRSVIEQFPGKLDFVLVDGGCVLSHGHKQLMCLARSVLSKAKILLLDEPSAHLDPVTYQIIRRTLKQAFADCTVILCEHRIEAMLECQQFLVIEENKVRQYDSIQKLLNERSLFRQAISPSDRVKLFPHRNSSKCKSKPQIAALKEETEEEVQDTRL

SMILES	EC50 (F508del-CFTR) [nM]	CYP3A4 Induction-PXR human PXR internal Max % Activity (human PXR) [%]	Papp A→B [1] [×10⁻⁶ cm/s]	Hepatocyte clearance-Rat Rat hepatocytes CL pct_unchanged (Rat hepatocytes) [%]
Cc1nn(C)cc1S(=O)(=O)NC(=O)c1ccc(-n2ccc(OC3CC3C(F)(F)F)n2)nc1N1C[C@@H](C)CC1(C)C (stereo partly drawn) [Compound 34, N-(1,3-dimethylpyrazol-4-yl)sulfonyl-6-[3-[2-(trifluoromethyl)cyclopropoxy]pyrazol-1-yl]-2-[(4S)-2,2,4-trimethylpyrrolidin-1-yl]pyridine-3-carboxamide]	610	6	7.5	39
Cc1nn(C)cc1S(=O)(=O)NC(=O)c1ccc(-n2ccc(O[C@H]3C[C@@H]4CC[C@H]3C4)n2)nc1N1C[C@@H](C)CC1(C)C [Compound 51, N-(1,3-dimethylpyrazol-4-yl)sulfonyl-6-[3-[(1S,2S,4R)-norbornan-2-yl]oxypyrazol-1-yl]-2-[(4S)-2,2,4-trimethylpyrrolidin-1-yl]pyridine-3-carboxamide]	150	6	2.9	29
C[C@@H]1CN(c2nc(-n3ccc(OCC4CCC4)n3)ccc2C(=O)NS(=O)(=O)c2cccnc2N)C(C)(C)C1 [D, reference compound]	210	10	–	19
Cc1nn(C)cc1S(=O)(=O)NC(=O)c1ccc(-n2ccc(OCC3(C(F)(F)F)CCC3)n2)nc1N1C[C@@H](C)CC1(C)C [Compound 19, N-(1,3-dimethylpyrazol-4-yl)sulfonyl-6-[3-[[1-(trifluoromethyl)cyclobutyl]methoxy]pyrazol-1-yl]-2-[(4S)-2,2,4-trimethylpyrrolidin-1-yl]pyridine-3-carboxamide]	90	1	8.8	–
Cc1nn(C)cc1S(=O)(=O)NC(=O)c1ccc(-n2ccc(OCC3C4CCC3CC4)n2)nc1N1C[C@@H](C)CC1(C)C (stereo partly drawn) [Compound 52, N-(1,3-dimethylpyrazol-4-yl)sulfonyl-6-[3-(norbornan-7-ylmethoxy)pyrazol-1-yl]-2-[(4S)-2,2,4-trimethylpyrrolidin-1-yl]pyridine-3-carboxamide]	170	2	2	18
Cc1nn(C)c(C)c1S(=O)(=O)NC(=O)c1ccc(-n2ccc(OCC3(C(F)(F)F)CC3)n2)nc1N1C[C@@H](C)CC1(C)C [Compound 16, 6-[3-[[1-(trifluoromethyl)cyclopropyl]methoxy]pyrazol-1-yl]-N-(1,3,5-trimethylpyrazol-4-yl)sulfonyl-2-[(4S)-2,2,4-trimethylpyrrolidin-1-yl]pyridine-3-carboxamide]	400	13	3.9	10
Cc1nn(C)c(C)c1S(=O)(=O)NC(=O)c1ccc(-n2ccc(OCC(C)(C)C(F)(F)F)n2)nc1N1C[C@@H](C)CC1(C)C [Compound 17, 6-[3-(3,3,3-trifluoro-2,2-dimethyl-propoxy)pyrazol-1-yl]-N-(1,3,5-trimethylpyrazol-4-yl)sulfonyl-2-[(4S)-2,2,4-trimethylpyrrolidin-1-yl]pyridine-3-carboxamide]	170	3	3.8	19
Cc1nn(C)cc1S(=O)(=O)NC(=O)c1ccc(-n2ccc(OCC(C3CC3)C3CC3)n2)nc1N1C[C@@H](C)CC1(C)C [Compound 32, 6-[3-(2,2-dicyclopropylethoxy)pyrazol-1-yl]-N-(1,3-dimethylpyrazol-4-yl)sulfonyl-2-[(4S)-2,2,4-trimethylpyrrolidin-1-yl]pyridine-3-carboxamide]	200	5	3.8	–
C[C@@H]1CN(c2nc(-n3ccc(OCC4(C(F)(F)F)CC4)n3)ccc2C(=O)NS(=O)(=O)c2cnn(C)c2)C(C)(C)C1 [Compound 6, N-(1-methylpyrazol-4-yl)sulfonyl-6-[3-[[1-(trifluoromethyl)cyclopropyl]methoxy]pyrazol-1-yl]-2-[(4S)-2,2,4-trimethylpyrrolidin-1-yl]pyridine-3-carboxamide]	300	0.9	2.1	53
Cc1nn(C)cc1S(=O)(=O)NC(=O)c1ccc(-n2ccc(OCC(C)(C)C(F)(F)F)n2)nc1N1C[C@H](C)CC1(C)C [Compound 37, N-(1,3-Dimethylpyrazol-4-yl)sulfonyl-6-[3-(3,3,3-trifluoro-2,2-dimethyl-propoxy)pyrazol-1-yl]-2-[(4R)-2,2,4-trimethylpyrrolidin-1-yl]pyridine-3-carboxamide]	290	7	5.1	–
C[C@@H]1CN(c2nc(-n3ccc(OCC4(C(F)(F)F)CC4)n3)ccc2C(=O)NS(=O)(=O)c2cnn(C(C)(C)C)c2)C(C)(C)C1 [Compound 8, N-(1-tert-butylpyrazol-4-yl)sulfonyl-6-[3-[[1-(trifluoromethyl)cyclopropyl]methoxy]pyrazol-1-yl]-2-[(4S)-2,2,4-trimethylpyrrolidin-1-yl]pyridine-3-carboxamide]	400	10	3.2	62
Cc1c(S(=O)(=O)NC(=O)c2ccc(-n3ccc(OCC4CC45CC5)n3)nc2N2C[C@@H](C)CC2(C)C)cnn1C (stereo partly drawn) [Compound 26, N-(1,5-dimethylpyrazol-4-yl)sulfonyl-6-[3-(spiro[2.2]pentan-2-ylmethoxy)pyrazol-1-yl]-2-[(4S)-2,2,4-trimethylpyrrolidin-1-yl]pyridine-3-carboxamide]	1000	6	2.3	–
CCn1cc(S(=O)(=O)NC(=O)c2ccc(-n3ccc(OCC4(C(F)(F)F)CC4)n3)nc2N2C[C@@H](C)CC2(C)C)cn1 [Compound 7, N-(1-ethylpyrazol-4-yl)sulfonyl-6-[3-[[1-(trifluoromethyl)cyclopropyl]methoxy]pyrazol-1-yl]-2-[(4S)-2,2,4-trimethylpyrrolidin-1-yl]pyridine-3-carboxamide]	650	4	3.1	–
Cc1nn(C)cc1S(=O)(=O)NC(=O)c1ccc(-n2ccc(OC(C3CC3)C3CC3)n2)nc1N1C[C@@H](C)CC1(C)C [Compound 48, 6-[3-(Dicyclopropylmethoxy)pyrazol-1-yl]-N-(1,3-dimethylpyrazol-4-yl)sulfonyl-2-[(4S)-2,2,4-trimethylpyrrolidin-1-yl]pyridine-3-carboxamide]	1000	8	4.6	–
